# From publication PMC9011347, “Small-Molecule Inhibitors Targeting Lipolysis in Human Adipocytes” (Journal of the American Chemical Society, 2022)
# System: HepG2^control cells
# Assay: Seahorse cellular respiration (OCR)
# Format: cell-based, human
# Settings: NG-497 40 μM
# Source text: NG-497 could affect respiration by limiting the availability of FAs as an energy substrate or by off-target effects leading to mitochondrial dysfunction, which is a major mechanism of drug-induced toxicity.[47] To monitor on- and off-target effects of NG-497 on cellular respiration, we performed seahorse experiments using HepG2 cells endogenously expressing (HepG2^control) or lacking ATGL (HepG2^AKO). This method allows the measurement of basal respiration (BR), maximal respiration (MR), proton leak (PL), ATP production (ATPP), spare respiratory capacity (SRC), and nonmitochondrial oxygen consumption (NMOC) after successive addition of oligomycin (ATP-synthase inhibitor), carbonyl cyanide p-trifluoromethoxyphenylhydrazone (FCCP) (uncoupler), and antimycin/rotenone (electron transport chain inhibitors). The human hepatoma cell line HepG2 was selected as a model since it is frequently used to monitor drug-induced mitochondrial dysfunction.[48] Like most cancer cell lines, HepG2 cells rely on anaerobic glycolysis for ATP generation, implicating that inhibition of lipolysis has only minor effects on respiration.
# (a) HepG2 cells were treated with NG-497 (40 μM) or DMSO as control and oxygen consumption rate (OCR) was determined in Seahorse growth medium supplemented with glucose (25 mM) using the SeaHorse XF96 extracellular flux analyzer. OCR was determined after subsequent addition of 1 μM Oligomycin (ATP-synthase inhibitor), 1 μM FCCP (uncoupler), and 1 μM antimycin/rotenone (electron transport chain inhibitors). (b) Statistical analysis of basal respiration (BR), maximal respiration (MR), proton leak (PL), ATP production (ATPP), spare respiratory capacity (SRC), and nonmitochondrial oxygen consumption (NMOC) of control and NG-497-treated cells. (c) Extracellular acidification rate (ECAR) and (d) OCR of HepG2 cells were determined in Seahorse growth medium supplemented with glucose (25 mM) or galactose (10 mM). (e) Determination of the ORC of HepG2 cells grown in medium supplemented with galactose (10 mM) and NG-497 (40 μM) or DMSO as control with (f) respective statistical analysis. (g) ATGL gene was inactivated in HepG2 cells using the CRISPR/Cas9 system. Growth of cells expressing (HepG2^control) or lacking functional ATGL (HepG2^AKO) was determined using a BioRad cell analyzer. ATGL expression was analyzed by Western blotting analysis using an anti-ATGL antibody and GAPDH as a loading control (inset). (h) Acylglycerol content of HepG2^control and HepG2^AKO cells was determined by a commercial kit (TG Infinity reagent, Thermo Fisher Scientific). (i) OCR of galactose-supplemented HepG2^AKO cells and (j) the respective statistical analysis. Data are presented as mean ± standard error of the mean (SEM). Statistical significance was determined via Student’s t test (*p < 0.05; **p < 0.01; ***p < 0.001) or ANOVA followed by Bonferroni post hoc test (^#p < 0.05; ^##p < 0.01; ^###p < 0.001). […]
# Sanger sequencing. The resulting constructs were transfected into HepG2 cells using the Turbofect Reagent (#R0531, Thermo Fisher Scientific) according to the manufacturer’s instructions. Cells transfected with empty pSpCas9(BB)-2A-Puro V2.0 served as negative control. 24 h after transfection, puromycin was added at a concentration of 4 µg/ml to eliminate non-transfected cells.
# 48 h later, the remaining cells were singularized in 96-well plates by seeding 1 cell/well. After clonal expansion for three weeks, the resulting cell lines were screened for ATGL deletion by immunoblotting using an ATGL-specific antibody (#2138S, CST). gRNA_v1 construct was chosen for further analysis.
# Determination of cellular acylglycerol content. Cells were harvested in buffer A, total lipids extracted with chloroform/methanol (2/1, v/v) for 1 h at RT on a top-over wheel, and phase separation was achieved by centrifugation at 2,000 x g for 10min at RT. The organic phase was collected, dried under a stream of nitrogen, and dissolved in 2% Triton X-100 by […]
# sonication. […]
# [1] = glucose medium, tendency, not significant
structure (smiles),measurement,setting,value
CCOc1ccc(-c2cc(OC)cc(C(=O)OC(C)C)n2)cc1 [NG-497],change of basal OCR (BR),galactose (10 mM) medium,−15%
same,change of maximal respiration (MR),galactose (10 mM) medium,−17%
same,change of spare respiratory capacity (SRC),galactose (10 mM) medium,−20%
same,change of maximal respiration (MR),[1],−11%
same,change of spare respiratory capacity (SRC),[1],−18%
same,effects on respiration (OCR parameters),medium with glucose (25 mM),could not observe significant effects
